Reference: paper PMC9971101, “Comparison of Five Near-Infrared Fluorescent Folate Conjugates in an Ovarian Cancer Model” (Molecular Imaging and Biology, 2021)

How the values were obtained:
[1] = system: Skov-3 subcutaneous xenografts; assay: In vivo biodistribution and optimal time point FLI in subcutaneous Skov-3 xenograft model (IVIS Spectrum); design: species or system NOD-scid IL2Rg^null mice; conditions: for tumour to background ratio (TBR): mean ± SD; for excretion route: mice
Description: (§1) All applicable institutional and/or national guidelines for the care and use of animals were followed. All experiments were approved by The Norwegian Animal Research Authority and conducted according to The European Convention for the Protection of Vertebrates Used for Scientific Purposes (Application ID 14128). NOD-scid IL2Rg^null mice (referred to as NSG) were housed in groups of ≤ 5 in individually ventilated cages changed twice per month and kept in a 12-h […] schedule at 21 °C at the Vivarium, University of Bergen. Observations for general condition and body weights were recorded twice per week and, when indicated, the animals were euthanised according to institutional guidelines. Skov-3 and A549 subcutaneous xenografts were established through bi-lateral flank injections of 5 × 10^6 cells, resuspended in 100 μL PBS containing 16.7% Matrigel (Corning Inc., MA, USA). Tumour volumes were measured weekly with a digital calliper and calculated using the ellipsoid volume formula: Volume = π (length × width × height)/6.
For biodistribution assessment of conjugates 1–5, mice were intravenously (iv) injected with 100 μL of a 10-μM conjugate solution when mean tumour volumes reached ≈150 mm^3, corresponding to a dose of […]. The dose was chosen on the basis of preclinical mouse models previously performed using folate-NIR (OTL38) FLI [28]. To determine the timepoint for the optimal TBR, optical imaging was performed at 0 h, 0.5 h, 1 h, 2 h, 4 h, 6 h, 8 h, 24 h and 48 h using the IVIS Spectrum. Fluorescence signals were analysed with the Living Imaging® software v4.5 (PerkinElmer Inc.) and expressed as average radiance (p/s/cm^2/sr). Regions of interest (ROI) were manually drawn around the subcutaneous tumours in the flanks and the adjacent tissue to calculate TBRs at all time points. Next, subcutaneous xenograft models were imaged at the pre-determined optimal time points, which were 4 h for conjugates 1, 2 and 3 and 24 h for conjugates 4 and 5.

[2] = Fluorescence spectroscopy (excitation and emission spectra); type: physicochemical
Description: The spectral characteristics of the conjugates 1–5 were determined using a Spark 20M plate reader (Tecan, Switzerland). The emission and excitation of all conjugates were measured in triplicates with a bandwidth of 5 nm in a 96-well Half-Area Microplate at a concentration of 100 μM dissolved in phosphate buffered saline (PBS). The fluorescence intensity was plotted as normalised relative fluorescence units (RFU).
Using conjugates 1–5, we evaluated how the conjugation of the different fluorophores to EDAF (Fig. 1a) affected the optical properties. To do so, we defined their individual excitation and emission spectra, and determined the optimal FLI parameters. The different conjugates (Fig. 1b) were diluted in medium or in DMSO and the peak excitation and emission obtained are reported in Table 1, Fig. 1c and Fig. S17.

[3] = system: Skov-3 and A549 subcutaneous xenografts; assay: Ex vivo tumour and organ biodistribution (IVIS Spectrum and FLARE intraoperative system); type: in vivo, NOD-scid IL2Rg^null mice; conditions: for ex vivo fluorescence signal in tumours (FLARE): Skov-3 tumour; for ex vivo fluorescence in the kidneys (FLARE): exposure time 1000 ms
Description: as §1
Organ biodistribution was assessed ex vivo for each conjugate in Skov-3 and in the control cell line, A549. Four hours after iv administration of 1, 2 and 3 and 24 h after injection of 4 and 5 (100 μl, 10 μM), mice were euthanised and tumours and organs were harvested. FLI was performed with the IVIS Spectrum, and subsequently, fluorescence was acquired using the FLARE® intraoperative system (Curadel LLC), employing the NIR channel #2 (λex = 760 ± 3 nm and λem = > 781 nm longpass) at three different exposure times (500, 1000 and 2000 ms) at a gain of 1. IVIS Spectrum data were analysed as previously described, and FLARE data were analysed using ImageJ (Fiji, version 1.52p, [29]) and the integrated FLARE analysis platform using grey scale values expressed in arbitrary units (AU).

[4] = system: Skov-3 and A549 subcutaneous xenografts; assay: In vivo FLI at optimal time points, Skov-3 versus A549 xenografts (target specificity); design: species or system NOD-scid IL2Rg^null mice; conditions: 4 h after iv injection, p < 0.05
Description: as §1, with “Skov-3 and A549 subcutaneous xenografts were established through bi-lateral flank injections of 5 × 10^6 cells, resuspended in 100 μL PBS containing 16.7% Matrigel (Corning Inc., MA, USA).” left out
For biodistribution assessment of conjugates 1–5, mice were intravenously (iv) injected with 100 μL of a 10-μM conjugate solution when mean tumour volumes reached ≈150 mm^3, corresponding to a dose of 500 nmol/mouse. […] Fluorescence signals were analysed with the Living Imaging® software v4.5 (PerkinElmer Inc.) and expressed as average radiance (p/s/cm^2/sr). […] Next, subcutaneous xenograft models were imaged at the pre-determined optimal time points, which were 4 h for conjugates 1, 2 and 3 and 24 h for conjugates 4 and 5.

[5] = 4 h after iv injection, Skov-3 subcutaneous xenograft
[6] = 8 h after iv injection, Skov-3 subcutaneous xenograft
[7] = 4 h after iv injection, exposure time 2000 ms
[8] = 24 h after iv injection, Skov-3 subcutaneous xenograft
[9] = 24 h after iv injection, exposure time 2000 ms
[10] = Skov-3 xenografted mice, 24 h after iv injection

| Structure (SMILES) | excretion route ([1]; iv injection) | Stokes shift ([2]; DMSO) | λem ([2]; DMSO) | λex ([2]; DMSO) | Stokes shift ([2]; culture medium) | λem ([2]; culture medium) | λex ([2]; culture medium) | ex vivo organ accumulation (IVIS Spectrum) ([3]; 24 h after iv injection) | ex vivo fluorescence in the kidneys (FLARE) [3, 10] | tumour to background ratio (TBR) [1, 5] | tumour to background ratio (TBR) [1, 6] | residual fluorescence in healthy organs in vivo ([1]; 24 h after iv injection) | ex vivo fluorescence signal in tumours (FLARE) [3, 7] | tumour to background ratio (TBR) [1, 8] | ex vivo fluorescence signal in tumours (FLARE) [3, 9] | further results |
| --- | --- | --- | --- | --- | --- | --- | --- | --- | --- | --- | --- | --- | --- | --- | --- | --- |
| CC1(C)C(/C=C/C2=C(c3ccc(CCC(=O)NCCNC(=O)CC[C@H](NC(=O)c4ccc(NCc5cnc6nc(N)[nH]c(=O)c6n5)cc4)C(=O)O)cc3)C(=C/C=C3/N(CCC[N+](C)(C)C)c4ccc(S(=O)(=O)O)cc4C3(C)C)/CCC2)=[N+](CCC[N+](C)(C)C)c2ccc(S(=O)(=O)O)cc21 [Conjugate 2, 2-((E)-2-((E)-4'-(3-((2-((S)-4-(4-(((2-amino-4-oxo-3,4-dihydropteridin-6-yl)methyl)amino)benzamido)-4-carboxybutanamido)ethyl)amino)-3-oxopropyl)-6-(2-((E)-3,3-dimethyl-5-sulfonato-1-(3-(trimethylammonio)propyl)indolin-2-ylidene)ethylidene)-3,4,5,6-tetrahydro-[1,1'-biphenyl]-2-yl)vinyl)-3,3-dimethyl-1-(3-(trimethylammonio)propyl)-3H-indol-1-ium-5-sulfonate] | renally cleared | 28 nm | 802 nm | 774 nm | 28 nm | 788 nm | 760 nm |  |  | 1.8 ± 0.2 | 2.0 ± 0.2 |  | 213.1 ± 51.0 AU |  |  | time that the fluorescence signal in Skov-3 tumours was sustained ([1]; after iv injection, last imaging time point 48 h): up to 48 h; difference in average radiance between Skov-3 and A549 tumours [4]: significant difference |
| CC1(C)C(/C=C/C=C/C=C/C=C2\N(CCCCCC(=O)NCCNC(=O)CC[C@H](NC(=O)c3ccc(NCc4cnc5nc(N)[nH]c(=O)c5n4)cc3)C(=O)O)c3ccc4ccccc4c3C2(C)C)=[N+](CCCCS(=O)(=O)[O-])c2ccc3ccccc3c21 [Conjugate 4, 4-(2-((1E,3E,5E,7Z)-7-(3-(6-((2-((S)-4-(4-(((2-amino-4-oxo-3,4-dihydropteridin-6-yl)methyl)amino)benzamido)-4-carboxybutanamido)ethyl)amino)-6-oxohexyl)-1,1-dimethyl-1,3-dihydro-2H-benzo[e]indol-2-ylidene)hepta-1,3,5-trien-1-yl)-1,1-dimethyl-1H-benzo[e]indol-3-ium-3-yl)butane-1-sulfonate] | hepatobiliary excretion | 42 nm | 832 nm | 790 nm | 36 nm | 820 nm | 784 nm | mainly in the liver | 100.4 ± 37.8 AU |  |  |  |  | 1.0 ± 0.1 | 56.4 ± 4.1 AU | tumour to background ratio (TBR) ([1]; 0.5 h after iv injection, Skov-3 subcutaneous xenograft): 1.3 ± 0.3; accumulation in tumours ([1]; Skov-3 subcutaneous xenograft, iv injection): no accumulation in tumours; ex vivo fluorescence intensity in the liver (FLARE) ([3]; Skov-3 xenografted mice, 24 h after iv injection, exposure time 2000 ms): 283.3 ± 38.7 AU |
| C[N+]1=C(/C=C/C2=C(Cl)C(=C/C=C3/N(CCCCCC(=O)NCCNC(=O)CC[C@H](NC(=O)c4ccc(NCc5cnc6nc(N)[nH]c(=O)c6n5)cc4)C(=O)O)c4ccccc4C3(C)C)/CCC2)C(C)(C)c2ccccc21 [Conjugate 5, 2-((E)-2-((E)-3-(2-((E)-1-(6-((2-((S)-4-(4-(((2-amino-4-oxo-3,4-dihydropteridin-6-yl)methyl)amino)benzamido)-4-carboxybutanamido)ethyl)amino)-6-oxohexyl)-3,3-dimethylindolin-2-ylidene)ethylidene)-2-chlorocyclohex-1-en-1-yl)vinyl)-1,3,3-trimethyl-3H-indol-1-ium] | hepatobiliary excretion | 24 nm | 820 nm | 796 nm | 15 nm | 804 nm | 789 nm | in the stomach | 63.9 ± 11.3 AU |  |  |  |  | 2.1 ± 0.6 | 60.9 ± 6.3 AU | time at which tumour fluorescence became evident ([1]; post-injection, Skov-3 subcutaneous xenograft): 4 h |

Further lines, with some results ahead:

| excretion route ([1]; iv injection) | Stokes shift ([2]; DMSO) | λem ([2]; DMSO) | λex ([2]; DMSO) | Stokes shift ([2]; culture medium) | λem ([2]; culture medium) | λex ([2]; culture medium) | ex vivo organ accumulation (IVIS Spectrum) ([3]; 24 h after iv injection) | ex vivo fluorescence in the kidneys (FLARE) [3, 10] | Structure (SMILES) | tumour to background ratio (TBR) [1, 5] | tumour to background ratio (TBR) [1, 6] | residual fluorescence in healthy organs in vivo ([1]; 24 h after iv injection) | ex vivo fluorescence signal in tumours (FLARE) [3, 7] | tumour to background ratio (TBR) [1, 8] | ex vivo fluorescence signal in tumours (FLARE) [3, 9] | further results |
| --- | --- | --- | --- | --- | --- | --- | --- | --- | --- | --- | --- | --- | --- | --- | --- | --- |
| renally cleared | 24 nm | 816 nm | 792 nm | 25 nm | 802 nm | 777 nm |  |  | CC1(C)C(/C=C/C2=C(Oc3ccc(CCC(=O)NCCNC(=O)CC[C@H](NC(=O)c4ccc(NCc5cnc6nc(N)[nH]c(=O)c6n5)cc4)C(=O)O)cc3)C(=C/C=C3/N(CCC[N+](C)(C)C)c4ccc(S(=O)(=O)O)cc4C3(C)C)/CCC2)=[N+](CCC[N+](C)(C)C)c2ccc(S(=O)(=O)O)cc21 [Conjugate 1, 2-((E)-2-((E)-2-(4-(3-((2-((S)-4-(4-(((2-amino-4-oxo-3,4-dihydropteridin-6-yl)methyl)amino)benzamido)-4-carboxybutanamido)ethyl)amino)-3-oxopropyl)phenoxy)-3-(2-((E)-3,3-dimethyl-5-sulfonato-1-(3-(trimethylammonio)propyl)indolin-2-ylidene)ethylidene)cyclohex-1-en-1-yl)vinyl)-3,3-dimethyl-1-(3-(trimethylammonio)propyl)-3H-indol-1-ium-5-sulfonate] | 1.9 ± 0.3 | 2.0 ± 0.4 | residual fluorescence signal in the kidneys | 156.9 ± 22.0 AU |  |  |  |
| renally cleared | 28 nm | 826 nm | 798 nm | 25 nm | 808 nm | 783 nm |  |  | CC1(C)C(/C=C/C2=C(Oc3ccc(S(=O)(=O)O)cc3)C(=C/C=C3/N(CCCCS(=O)(=O)O)c4ccc(S(=O)(=O)[O-])cc4C3(C)C)/CCC2)=[N+](CCCCCC(=O)NCCNC(=O)CC[C@H](NC(=O)c2ccc(NCc3cnc4nc(N)[nH]c(=O)c4n3)cc2)C(=O)O)c2ccc(S(=O)(=O)O)cc21 [Conjugate 3, 1-(6-((2-((S)-4-(4-(((2-amino-4-oxo-3,4-dihydropteridin-6-yl)methyl)amino)benzamido)-4-carboxybutanamido)ethyl)amino)-6-oxohexyl)-2-((E)-2-((E)-3-(2-((E)-3,3-dimethyl-5-sulfonato-1-(4-sulfonatobutyl)indolin-2-ylidene)ethylidene)-2-(4-sulfonatophenoxy)cyclohex-1-en-1-yl)vinyl)-3,3-dimethyl-3H-indol-1-ium-5-sulfonate] | 1.2 ± 0.2 | 1.4 ± 0.3 | residual fluorescence signal in the kidneys | 189.7 ± 27.1 AU |  |  | ex vivo fluorescence in the kidneys (FLARE) ([3]; Skov-3 xenografted mice, 4 h after iv injection): 913.6 ± 248.9 AU |
